# HELM strings list units from the 5' end as sugar, base in round brackets, then linkage (d deoxyribose, r ribose, m 2'-O-methyl, p phosphodiester). Strings are as the collection lists them, not checked against the first reports. ss, as = sense and antisense strand
# Details: siRNA
# Further: test system not given here.
row,Substance,target mRNA knockdown [%]
1,RNA1{m(G)p.r(A)p.m(A)p.r(U)p.m(A)p.r(A)p.m(C)p.r(C)p.m(U)p.r(G)p.m(A)p.r(A)p.m(C)p.r(G)p.m(U)p.r(C)p.m(A)p.r(C)p.m(C)p.r(T)p.r(T)}|RNA2{r(G)p.r(G)p.r(U)p.r(G)p.r(A)p.r(C)p.r(G)p.r(U)p.r(U)p.r(C)p.r(A)p.r(G)p.r(G)p.r(U)p.r(U)p.r(A)p.r(U)p.r(U)p.r(C)p.r(T)p.r(T)}$$$RNA1{StrandType:ss}|RNA2{StrandType:as}$,17
2,RNA1{m(G)p.r(A)p.m(C)p.r(A)p.m(A)p.r(G)p.m(G)p.r(G)p.m(A)p.r(A)p.m(G)p.r(G)p.m(U)p.r(U)p.m(A)p.r(G)p.m(C)p.r(C)p.m(U)p.r(T)p.r(T)}|RNA2{r(A)p.r(G)p.r(G)p.r(C)p.r(U)p.r(A)p.r(A)p.r(C)p.r(C)p.r(U)p.r(U)p.r(C)p.r(C)p.r(C)p.r(U)p.r(U)p.r(G)p.r(U)p.r(C)p.r(T)p.r(T)}$$$RNA1{StrandType:ss}|RNA2{StrandType:as}$,34
3,RNA1{m(G)p.r(A)p.m(G)p.r(A)p.m(G)p.r(A)p.m(G)p.r(A)p.m(C)p.r(G)p.m(G)p.r(U)p.m(G)p.r(G)p.m(A)p.r(A)p.m(G)p.r(A)p.m(A)p.r(T)p.r(T)}|RNA2{r(U)p.r(U)p.r(C)p.r(U)p.r(U)p.r(C)p.r(C)p.r(A)p.r(C)p.r(C)p.m(G)p.r(U)p.r(C)p.r(U)p.r(C)p.r(U)p.r(C)p.r(U)p.r(C)p.r(T)p.r(T)}$$$RNA1{StrandType:ss}|RNA2{StrandType:as}$,56
4,RNA1{m(G)p.r(A)p.m(G)p.r(G)p.m(A)p.r(U)p.m(G)p.r(G)p.m(A)p.r(U)p.m(U)p.r(C)p.m(G)p.r(A)p.m(C)p.r(U)p.m(U)p.r(A)p.r(G)p.r(T)p.r(T)}|RNA2{r(C)p.m(U)p.r(A)p.r(A)p.r(G)p.m(U)p.r(C)p.r(G)p.r(A)p.r(A)p.m(U)p.r(C)p.r(C)p.r(A)p.r(U)p.r(C)p.r(C)p.r(U)p.r(C)p.r(T)p.r(T)}$$$RNA1{StrandType:ss}|RNA2{StrandType:as}$,23
5,RNA1{m(G)p.r(A)p.m(U)p.r(A)p.m(C)p.r(U)p.m(U)p.r(C)p.m(U)p.r(G)p.m(G)p.r(U)p.m(U)p.r(C)p.m(C)p.r(C)p.m(U)p.r(C)p.m(C)p.r(T)p.r(T)}|RNA2{r(G)p.r(G)p.r(A)p.r(G)p.r(G)p.r(G)p.r(A)p.r(A)p.r(C)p.r(C)p.r(A)p.r(G)p.r(A)p.r(A)p.r(G)p.r(U)p.r(A)p.r(U)p.r(C)p.r(T)p.r(T)}$$$RNA1{StrandType:ss}|RNA2{StrandType:as}$,45
6,RNA1{m(G)p.r(A)p.m(U)p.r(U)p.m(C)p.r(C)p.m(A)p.r(A)p.m(A)p.r(C)p.m(C)p.r(C)p.m(C)p.r(A)p.m(C)p.r(U)p.m(A)p.r(U)p.m(C)p.r(T)p.r(T)}|RNA2{r(G)p.r(A)p.r(U)p.r(A)p.r(G)p.r(U)p.r(G)p.r(G)p.r(G)p.r(G)p.r(U)p.r(U)p.r(U)p.r(G)p.r(G)p.r(A)p.r(A)p.r(U)p.r(C)p.r(T)p.r(T)}$$$RNA1{StrandType:ss}|RNA2{StrandType:as}$,54
7,RNA1{m(G)p.r(C)p.m(A)p.m(G)p.m(A)p.m(G)p.m(A)p.m(A)p.r(U)p.r(C)p.r(U)p.m(A)p.r(C)p.r(C)p.r(U)p.r(U)p.r(U)p.r(C)p.r(C)p.r(T)p.r(T)}|RNA2{r(G)p.r(G)p.r(A)p.r(A)p.r(A)p.r(G)p.r(G)p.r(U)p.r(A)p.r(G)p.r(A)p.r(U)p.r(U)p.r(C)p.r(U)p.r(C)p.r(U)p.r(G)p.r(C)p.r(T)p.r(T)}$$$RNA1{StrandType:ss}|RNA2{StrandType:as}$,65
8,RNA1{m(G)p.r(C)p.m(A)p.r(A)p.m(G)p.r(U)p.m(G)p.r(G)p.m(C)p.r(A)p.m(A)p.r(G)p.m(A)p.r(G)p.m(G)p.r(A)p.m(U)p.r(U)p.r(A)p.r(T)p.r(T)}|RNA2{r(U)p.r(A)p.r(A)p.r(U)p.r(C)p.r(C)p.r(U)p.r(C)p.r(U)p.r(U)p.r(G)p.r(C)p.r(C)p.r(A)p.r(C)p.r(U)p.r(U)p.r(G)p.r(C)p.r(T)p.r(T)}$$$RNA1{StrandType:ss}|RNA2{StrandType:as}$,55
9,RNA1{m(G)p.r(C)p.m(G)p.m(A)p.m(G)p.r(C)p.m(A)p.m(G)p.m(A)p.m(G)p.m(A)p.m(A)p.r(U)p.r(C)p.r(U)p.m(A)p.r(C)p.r(C)p.r(U)p.r(T)p.r(T)}|RNA2{r(A)p.r(G)p.r(G)p.r(U)p.r(A)p.r(G)p.r(A)p.r(U)p.r(U)p.r(C)p.r(U)p.r(C)p.r(U)p.r(G)p.r(C)p.r(U)p.r(C)p.r(G)p.r(C)p.r(T)p.r(T)}$$$RNA1{StrandType:ss}|RNA2{StrandType:as}$,65
10,RNA1{m(G)p.r(C)p.m(U)p.r(G)p.m(A)p.r(G)p.m(G)p.r(A)p.m(A)p.r(A)p.m(G)p.r(G)p.m(G)p.r(A)p.m(C)p.r(A)p.m(U)p.r(C)p.m(U)p.r(T)p.r(T)}|RNA2{r(A)p.r(G)p.r(A)p.r(U)p.r(G)p.r(U)p.r(C)p.r(C)p.r(C)p.r(U)p.r(U)p.r(U)p.r(C)p.r(C)p.r(U)p.r(C)p.r(A)p.r(G)p.r(C)p.r(T)p.r(T)}$$$RNA1{StrandType:ss}|RNA2{StrandType:as}$,61
11,RNA1{m(G)p.r(C)p.m(U)p.r(U)p.m(U)p.r(A)p.m(A)p.r(G)p.m(G)p.r(A)p.m(A)p.r(C)p.m(U)p.r(G)p.m(G)p.r(A)p.m(A)p.r(G)p.m(G)p.r(T)p.r(T)}|RNA2{r(C)p.m(C)p.r(U)p.m(U)p.r(C)p.m(C)p.r(A)p.m(G)p.r(U)p.m(U)p.r(C)p.r(C)p.r(U)p.r(U)p.r(A)p.r(A)p.r(A)p.r(G)p.r(C)p.r(T)p.r(T)}$$$RNA1{StrandType:ss}|RNA2{StrandType:as}$,25
12,RNA1{m(G)p.r(C)p.m(U)p.r(U)p.m(U)p.r(A)p.m(A)p.r(G)p.m(G)p.r(A)p.m(A)p.r(C)p.m(U)p.r(G)p.m(G)p.r(A)p.m(A)p.r(G)p.m(G)p.r(T)p.r(T)}|RNA2{r(C)p.r(C)p.r(U)p.r(U)p.r(C)p.r(C)p.r(A)p.m(G)p.r(U)p.r(U)p.r(C)p.r(C)p.r(U)p.r(U)p.r(A)p.r(A)p.r(A)p.m(G)p.r(C)p.r(T)p.r(T)}$$$RNA1{StrandType:ss}|RNA2{StrandType:as}$,51
13,RNA1{m(G)p.r(G)p.m(A)p.r(A)p.m(G)p.r(U)p.m(A)p.r(A)p.m(G)p.r(G)p.m(A)p.r(C)p.m(C)p.r(A)p.m(G)p.r(A)p.m(G)p.r(A)p.m(C)p.r(T)p.r(T)}|RNA2{m(G)p.r(U)p.r(C)p.r(U)p.r(C)p.r(U)p.m(G)p.m(G)p.r(U)p.r(C)p.r(C)p.r(U)p.r(U)p.r(A)p.r(C)p.r(U)p.r(U)p.r(C)p.r(C)p.r(T)p.r(T)}$$$RNA1{StrandType:ss}|RNA2{StrandType:as}$,23
14,RNA1{m(G)p.r(G)p.m(A)p.r(A)p.m(G)p.r(U)p.m(C)p.r(C)p.m(A)p.r(C)p.m(C)p.r(U)p.m(U)p.r(C)p.m(U)p.r(C)p.m(C)p.r(G)p.m(A)p.r(T)p.r(T)}|RNA2{m(U)p.r(C)p.r(G)p.r(G)p.r(A)p.r(G)p.r(A)p.r(A)p.r(G)p.r(G)p.m(U)p.r(G)p.r(G)p.r(A)p.r(C)p.m(U)p.m(U)p.r(C)p.r(C)p.r(T)p.r(T)}$$$RNA1{StrandType:ss}|RNA2{StrandType:as}$,27
15,RNA1{m(G)p.r(G)p.m(A)p.r(G)p.m(C)p.r(A)p.m(C)p.r(G)p.m(C)p.r(U)p.m(U)p.r(A)p.m(C)p.r(U)p.m(A)p.r(C)p.m(C)p.r(U)p.m(U)p.r(T)p.r(T)}|RNA2{r(A)p.r(A)p.r(G)p.r(G)p.r(U)p.r(A)p.r(G)p.r(U)p.r(A)p.r(A)p.r(G)p.r(C)p.r(G)p.r(U)p.r(G)p.r(C)p.r(U)p.r(C)p.r(C)p.r(T)p.r(T)}$$$RNA1{StrandType:ss}|RNA2{StrandType:as}$,51
16,RNA1{m(G)p.r(G)p.m(A)p.r(G)p.m(C)p.r(U)p.m(A)p.r(G)p.m(A)p.r(C)p.m(G)p.r(G)p.m(G)p.r(U)p.m(A)p.r(C)p.m(G)p.r(A)p.r(G)p.r(T)p.r(T)}|RNA2{r(C)p.r(U)p.r(C)p.r(G)p.r(U)p.r(A)p.r(C)p.r(C)p.r(C)p.r(G)p.r(U)p.r(C)p.r(U)p.r(A)p.r(G)p.r(C)p.r(U)p.r(C)p.r(C)p.r(T)p.r(T)}$$$RNA1{StrandType:ss}|RNA2{StrandType:as}$,75
17,RNA1{m(G)p.r(G)p.m(C)p.r(C)p.m(A)p.r(A)p.m(A)p.r(G)p.m(U)p.r(A)p.m(A)p.r(U)p.m(C)p.r(G)p.m(U)p.r(G)p.m(G)p.r(U)p.m(U)p.r(T)p.r(T)}|RNA2{r(A)p.r(A)p.r(C)p.r(C)p.r(A)p.r(C)p.r(G)p.r(A)p.r(U)p.r(U)p.r(A)p.r(C)p.r(U)p.r(U)p.r(U)p.r(G)p.r(G)p.r(C)p.r(C)p.r(T)p.r(T)}$$$RNA1{StrandType:ss}|RNA2{StrandType:as}$,37
18,RNA1{m(G)p.r(G)p.m(C)p.r(C)p.m(U)p.r(U)p.m(U)p.r(C)p.m(U)p.r(C)p.m(U)p.r(C)p.m(U)p.r(A)p.m(G)p.r(A)p.m(U)p.r(A)p.m(U)p.r(T)p.r(T)}|RNA2{r(A)p.r(U)p.r(A)p.r(U)p.r(C)p.r(U)p.r(A)p.r(G)p.r(A)p.r(G)p.r(A)p.r(G)p.r(A)p.r(A)p.r(A)p.m(G)p.r(G)p.r(C)p.r(C)p.r(T)p.r(T)}$$$RNA1{StrandType:ss}|RNA2{StrandType:as}$,80
19,RNA1{m(G)p.r(G)p.m(C)p.r(G)p.m(G)p.r(G)p.m(C)p.r(U)p.m(C)p.r(U)p.m(U)p.r(U)p.m(C)p.r(C)p.m(U)p.r(A)p.m(U)p.r(U)p.m(C)p.r(T)p.r(T)}|RNA2{r(G)p.r(A)p.r(A)p.r(U)p.r(A)p.r(G)p.r(G)p.r(A)p.r(A)p.r(A)p.r(G)p.r(A)p.r(G)p.r(C)p.r(C)p.r(C)p.r(G)p.r(C)p.r(C)p.r(T)p.r(T)}$$$RNA1{StrandType:ss}|RNA2{StrandType:as}$,51
20,RNA1{m(G)p.r(G)p.m(G)p.r(A)p.m(G)p.r(G)p.m(U)p.r(C)p.m(U)p.r(U)p.m(A)p.r(G)p.m(A)p.r(A)p.m(A)p.r(A)p.m(C)p.r(A)p.m(C)p.r(T)p.r(T)}|RNA2{r(G)p.r(U)p.r(G)p.r(U)p.r(U)p.r(U)p.r(U)p.r(C)p.r(U)p.r(A)p.r(A)p.r(G)p.r(A)p.r(C)p.r(C)p.r(U)p.r(C)p.r(C)p.r(C)p.r(T)p.r(T)}$$$RNA1{StrandType:ss}|RNA2{StrandType:as}$,17
21,RNA1{m(G)p.r(G)p.m(G)p.r(G)p.m(C)p.r(U)p.m(C)p.r(U)p.m(U)p.r(C)p.m(U)p.r(A)p.m(C)p.r(A)p.m(U)p.r(U)p.m(C)p.r(C)p.m(C)p.r(T)p.r(T)}|RNA2{r(G)p.r(G)p.r(G)p.r(A)p.r(A)p.r(U)p.r(G)p.r(U)p.r(A)p.r(G)p.r(A)p.r(A)p.r(G)p.r(A)p.r(G)p.r(C)p.r(C)p.r(C)p.r(C)p.r(T)p.r(T)}$$$RNA1{StrandType:ss}|RNA2{StrandType:as}$,51

# Source: the OligoGym collection
